Assay results reported in PMC10096398, “Discovery of Novel EGFR Inhibitor Targeting Wild-Type and Mutant Forms of EGFR: In Silico and In Vitro Study” (Molecules, 2023).
Counter-ions that a name gives are not always drawn. Like-named read-outs stand apart in the source and are kept apart here. Blank lines part the entries; values can stand above or below the compound they belong to.

How the values were obtained:
H1975 = test: MTT cell viability assay; type: cell-based; conditions: Homo sapiens, read-out: IC50 (μM) H1975
Description: (§1) The cytotoxicity activities of potent PD derivatives obtained from the SIE method against A549 and H1975, as well as Vero (which are adherent cells), were assessed using MTT (3-(4,5-dimethyl-2-thiazolyl)-2,5-diphenyl-2H-tetrazolium bromide) assays. The A549 and Vero cells were grown in complete DMEM medium whereas H1975 cells were grown in complete RPMI medium supplemented with 10% (v/v) FBS, 100 U/mL penicillin and 100 µg/mL streptomycin. All cells were routinely cultured at 37 °C in a 5% (v/v) CO2, 95% (v/v) air humidified incubator. A549 (5 × 10^3 cells per well), H1975 (5 × 10^3 cells per well), and Vero (2 × 10^3 cells per well) cells were seeded into 96-well plates and incubated overnight. After cell attachment, cells were replenished using fresh medium with 0.1% FBS containing various concentrations of potent PD derivatives and known drugs and then incubated at 37 °C for 72 h. After that, fresh medium containing MTT solution (5 mg/mL) was added and incubated at 37 °C. After 3 h, the formed formazan crystal was dissolved with 100 μL of dimethyl sulfoxide (DMSO). Finally, the absorbance of formazan solution was measured at a wavelength 570 nm using a microplate reader (Infinite M200 microplate reader, Tecan, Männedorf, Switzerland). The independent treatments were repeated in triplicate. The IC50 determination of compounds was achieved using GraphPad Prism version 9.0.

A549 = test: MTT cell viability assay; type: cell-based; conditions: Homo sapiens, read-out: IC50 (μM) A549
Description: as §1

Vero = test: MTT cell viability assay, normal cell line; type: cell-based, monkey; conditions: 72 h, read-out: IC50 (μM) Vero
Description: as §1

L858R/T790M EGFR = L858R/T790M EGFR (Homo sapiens, UniProt P00533, L858R/T790M); test: EGFR inhibitory activity, ADP-Glo kinase assay; type: biochemical; conditions: for IC50: ADP-Glo
Description: (§2) Firstly, 8 µL of buffer (40 mM Tris-HCl pH 7.5, 20 mM MgCl2, and 0.1 mg/mL bovine serum albumin) were added to a 384-well plate (Promega, solid white). […] Thirdly, 5 µL of the ADP-Glo reagent was added and incubated for 40 min. Finally, 10 µL of kinase detection reagent was added and incubated at room temperature for 30 min and was detected by measuring the luminescence using a microplate reader (Infinite M200 microplate reader, Tecan, Männedorf, Switzerland).

wild-type EGFR = wild-type EGFR (Homo sapiens, UniProt P00533); test: EGFR inhibitory activity, ADP-Glo kinase assay; type: biochemical; conditions: for IC50: ADP-Glo; for EGFR inhibitory screening: single 1 µM concentration
Description: as §2

L858R/T790M/C797S EGFR = L858R/T790M/C797S EGFR (Homo sapiens, UniProt P00533, C797S/L858R/T790M); test: EGFR inhibitory activity, ADP-Glo kinase assay; type: biochemical
Description: as §2

[1] = Primates, Vero, Vero normal cells, MTT

melting point: 278 to 280 °C
SMILES: Cc1ncc(Cn2ccnc2)c2cc(C(=O)c3ccc(Br)cc3)oc12.Cl

melting point: 183 to 185 °C
SMILES: Cc1ncc(Cn2cnc(Cl)c2Cl)c2cc(C(=O)c3ccc(Br)cc3)oc12

melting point: 233 to 239 °C
SMILES: Cc1ncc(CN2CCN(C=O)CC2)c2cc(C(=O)c3ccc(Br)cc3)oc12.Cl

melting point: 224 to 227 °C
SMILES: Cc1ncc(CN2CCN(Cc3cccnc3)CC2)c2cc(C(=O)c3ccc4c(c3)OCCO4)oc12 (as salt: hydrochloride) [PD13, (2,3-Dihydrobenzo[d][1,4]dioxin-6-yl){7-methyl-4-[(4-(pyridin-3-ylmethyl)piperazin-1-yl)methyl]furo[2,3-c]pyridin-2-yl}methanone dihydrochloride]

IC50 (H1975; NCI-H1975, 72 h): 27.3 ± 1.87 µM | IC50 (A549; A549, 72 h): 34.7 ± 0.67 µM
SMILES: CN(C)C/C=C/C(=O)Nc1cc2c(Nc3ccc(F)c(Cl)c3)ncnc2cc1O[C@H]1CCOC1 [Afatinib]
IC50 (Vero; Primates, Vero): > 50 µM

IC50 (H1975; NCI-H1975, 72 h): 41.8 ± 2.19 µM | IC50 (A549; A549, 72 h): 19.4 ± 0.79 µM
SMILES: C#Cc1cccc(Nc2ncnc3cc(OCCOC)c(OCCOC)cc23)c1 [Erlotinib]
IC50 (Vero; Primates, Vero): > 30 µM

SMILES: C=CC(=O)Nc1cc(Nc2nccc(-c3cn(C)c4ccccc34)n2)c(OC)cc1N(C)CCN(C)C [Osimertinib]
IC50 (H1975; NCI-H1975, 72 h): 18.3 ± 2 µM | IC50 (A549; A549, 72 h): 25.3 ± 1.21 µM | IC50 (Vero; Primates, Vero): > 50 µM

melting point: 147 to 148 °C
SMILES: COc1ccc(C(=O)c2cc3c(CO)cnc(C)c3o2)cc1 [PD1, [4-Hydroxymethyl-7-methylfuro[2,3-c]pyridin-2-yl](4-methoxyphenyl)methanone]

melting point: 224 to 225 °C
SMILES: Cc1ncc(CN2CCN(Cc3ccccn3)CC2)c2cc(C(=O)c3ccc(Br)cc3)oc12.Cl.Cl [PD3, (4-Bromophenyl){7-methyl-4-[(4-(pyridin-2-ylmethyl)piperazin-1-yl]methyl}furo[2,3-c]pyridin-2-yl)methanone dihydrochloride]

IC50 (L858R/T790M EGFR): 91 ± 2.01 nM | melting point: 243 to 247 °C | IC50 (wild-type EGFR): 4.78 ± 0.73 nM | EGFR inhibitory activity compared to erlotinib (wild-type EGFR; ratio of IC50 values): > 2 fold | EGFR inhibitory screening (wild-type EGFR): only against wild-type EGFR | IC50 (H1975; NCI-H1975, H1975, MTT, 72 h): 27.3 ± 1.02 µM | IC50 (A549; A549, MTT, 72 h): 19.7 ± 0.59 µM | IC50 (L858R/T790M/C797S EGFR): 104 ± 3.62 nM
SMILES: Cc1ncc(CN2CCN(Cc3cccnc3)CC2)c2cc(C(=O)c3ccc(Br)cc3)oc12.Cl.Cl [PD4, (4-Bromophenyl){7-methyl-4-[(4-(pyridin-3-ylmethyl)piperazin-1-yl]methyl}furo[2,3-c]pyridin-2-yl)methanone dihydrochloride]
IC50 (Vero; [1]): < 100 µM | IC50 (Vero; Vero normal cells, MTT): > 50 µM

melting point: 129 to 132 °C
SMILES: Cc1ncc(CN2CCN(CCC#N)CC2)c2cc(C(=O)c3ccc(Br)cc3)oc12 [PD10, 3-{4-[(2-(4-bromobenzoyl)-7-methylfuro[2,3-c]pyridin-4-yl)methyl]piperazin-1-yl}propanenitrile]

IC50 (L858R/T790M EGFR): 10.5 ± 0.71 nM | EGFR inhibitory screening (L858R/T790M EGFR; single 1 µM concentration): active | IC50 (wild-type EGFR): 11.6 ± 1.3 nM | EGFR inhibitory screening (wild-type EGFR): active | IC50 (H1975; NCI-H1975, H1975, MTT, 72 h): 33.9 ± 0.86 µM | IC50 (A549; A549, MTT, 72 h): 18.1 ± 1.57 µM | IC50 (L858R/T790M/C797S EGFR): 21.9 ± 1.79 nM | IC50 (nM) L858R/T790M/C797S (L858R/T790M/C797S EGFR): double-digit nanomolar range
SMILES: Cc1ncc(CN2CCN(Cc3cccnc3)CC2)c2cc(C(=O)c3ccc4c(c3)OCCO4)oc12 [PD13, (2,3-Dihydrobenzo[d][1,4]dioxin-6-yl){7-methyl-4-[(4-(pyridin-3-ylmethyl)piperazin-1-yl)methyl]furo[2,3-c]pyridin-2-yl}methanone dihydrochloride]
IC50 (Vero; [1]): > 100 µM
